Our source for the IC50 values is US20260049085A1, “CYCLIC COMPOUNDS AND METHODS OF USING SAME” (SCHRÖDINGER, INC., priority 2022, published 2026).

The target in the test is T1, full-length MALT1 protein His-MALT1(1-824) (Homo sapiens, UniProt Q9UDY8).
T1 construct: full-length MALT1 protein His-MALT1(1-824); His (N); made in house; host or cells: baculovirus-infected insect cells
T1 sequence (Q9UDY8 1-824): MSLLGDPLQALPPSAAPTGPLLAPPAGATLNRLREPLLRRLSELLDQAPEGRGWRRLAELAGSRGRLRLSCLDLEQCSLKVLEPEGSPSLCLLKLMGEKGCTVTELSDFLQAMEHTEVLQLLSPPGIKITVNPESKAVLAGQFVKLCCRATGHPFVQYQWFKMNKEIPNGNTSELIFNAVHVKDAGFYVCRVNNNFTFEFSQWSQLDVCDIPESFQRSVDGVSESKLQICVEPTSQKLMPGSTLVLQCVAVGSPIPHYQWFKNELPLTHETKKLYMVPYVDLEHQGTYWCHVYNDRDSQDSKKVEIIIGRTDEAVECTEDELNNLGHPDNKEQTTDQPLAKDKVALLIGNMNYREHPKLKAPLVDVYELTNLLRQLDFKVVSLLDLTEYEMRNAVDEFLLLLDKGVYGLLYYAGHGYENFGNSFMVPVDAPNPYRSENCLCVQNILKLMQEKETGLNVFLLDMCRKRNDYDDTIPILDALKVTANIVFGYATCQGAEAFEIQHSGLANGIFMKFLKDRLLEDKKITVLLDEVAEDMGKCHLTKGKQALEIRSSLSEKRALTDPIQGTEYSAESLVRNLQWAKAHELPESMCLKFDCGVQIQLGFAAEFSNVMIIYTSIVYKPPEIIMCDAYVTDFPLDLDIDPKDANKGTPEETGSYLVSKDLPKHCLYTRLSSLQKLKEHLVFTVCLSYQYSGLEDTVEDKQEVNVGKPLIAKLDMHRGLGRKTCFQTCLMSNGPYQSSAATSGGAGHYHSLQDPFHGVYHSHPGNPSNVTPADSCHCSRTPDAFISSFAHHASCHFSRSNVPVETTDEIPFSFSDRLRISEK
Description: MALT1 protease assay (Ac-LRSR-AMC tetrapeptide substrate, fluorescence). Type of test: biochemical. The settings on record: 1 nM MALT1, 25 μM Ac-LRSR-AMC, 2 h pre-incubation, 8 hr incubation at RT. Summed up: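 Full-length His-MALT1(1-824) from baculovirus-infected insect cells (1 nM) was pre-incubated 2 h at RT with compounds (0.1% DMSO), then 25 μM Ac-LRSR-AMC added in 50 mM Tris pH 7.5, 600 mM sodium citrate, 1 mM DTT, 1 mM EDTA, 0.05% BSA. Fluorescence (ex 355/em 460 nm) read after 8 h at RT; IC50 by non-linear regression of % remaining activity.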

As to `C[C@@]1(c2cnn(C(F)F)c2)C[C@H](C(=O)Nc2cnc(OC(F)F)c(C#N)c2)c2cnc3cc(F)nn3c21` (single isomer, unassigned) [Example 94], the IC50 was in the range of 0.01 to 0.1 µM. Turning to `C[C@]1(c2cnn(C(F)F)c2)C[C@@H](C(=O)Nc2cnc(OC(F)F)c(C#N)c2)c2cnc3cc(F)nn3c21` (single isomer, unassigned) [Example 95], the IC50 fell in the range of 0.1 to 1 µM. Then `CC1(c2cnn(C(F)F)c2)CC(C(=O)Nc2cnc(N=S3(=O)CCC3)c(Cl)c2)c2cnc3cc(F)nn3c21` (single isomer, unassigned) [Example 96], with 0.01 to 0.1 µM; and `CC1(c2cnn(C(F)F)c2)CC(C(=O)Nc2cnc(N=S3(=O)CCC3)c(Cl)c2)c2cnc3cc(F)nn3c21` (single isomer, unassigned) [Example 97], with at least 1 µM.

As to `C[C@]1(c2cnn(CC3CC3)c2)C[C@H](C(=O)Nc2cnc(-n3nccn3)c(Cl)c2)c2cnc3cc(F)nn3c21` (single isomer, unassigned) [Example 98], the IC50 is below 0.01 µM.

The compound `C[C@@]1(c2cnn(CC3CC3)c2)C[C@@H](C(=O)Nc2cnc(-n3nccn3)c(Cl)c2)c2cnc3cc(F)nn3c21` (single isomer, unassigned) [Example 99] gave an IC50 of at least 1 µM. As for `C[C@@]1(c2cnn(CC3CC3)c2)C[C@H](C(=O)Nc2cnc(-n3nccn3)c(Cl)c2)c2cnc3cc(F)nn3c21` (single isomer, unassigned) [Example 100], the IC50 lay within 0.01 to 0.1 µM. The compound `C[C@]1(c2cnn(CC3CC3)c2)C[C@@H](C(=O)Nc2cnc(-n3nccn3)c(Cl)c2)c2cnc3cc(F)nn3c21` (single isomer, unassigned) [Example 101] had a concentration for half-maximal inhibition (IC50) of 0.1 to 1 µM. In turn, `C[C@]1(c2cnn(C(F)(F)F)c2)C[C@H](C(=O)Nc2cnc(-n3nccn3)c(Cl)c2)c2cnc3cc(F)nn3c21` (single isomer, unassigned) [Example 102] came in with an IC50 of 0.01 to 0.1 µM.

For `C[C@@]1(c2cnn(C(F)(F)F)c2)C[C@@H](C(=O)Nc2cnc(-n3nccn3)c(Cl)c2)c2cnc3cc(F)nn3c21` (single isomer, unassigned) [Example 103], the IC50 is at least 1 µM.

In turn, `C[C@@]1(c2cnn(C(F)(F)F)c2)C[C@H](C(=O)Nc2cnc(-n3nccn3)c(Cl)c2)c2cnc3cc(F)nn3c21` (single isomer, unassigned) [Example 104] had a 50% inhibitory concentration (IC50) of 0.1 to 1 µM.

`C[C@]1(c2cnn(C(F)(F)F)c2)C[C@@H](C(=O)Nc2cnc(-n3nccn3)c(Cl)c2)c2cnc3cc(F)nn3c21` (single isomer, unassigned) [Example 105] showed an IC50 of 0.1 to 1 µM. In the case of `CC1(c2cnn(C3(C)CC3)c2)CC(C(=O)Nc2cnc(-n3nccn3)c(Cl)c2)c2cnc3cc(F)nn3c21` (single isomer, unassigned) [Example 107], the IC50 was at least 1 µM. Then `CC1(n2cc([C@]3(C)C[C@H](C(=O)Nc4cnc(-n5nccn5)c(Cl)c4)c4cnc5cc(F)nn5c43)cn2)CC1` (single isomer, unassigned) [Example 108], with 0.1 to 1 µM. Then `CC1(n2cc([C@@]3(C)C[C@@H](C(=O)Nc4cnc(-n5nccn5)c(Cl)c4)c4cnc5cc(F)nn5c43)cn2)CC1` (single isomer, unassigned) [Example 109], with 0.1 to 1 µM.

`C[C@@]1(c2ccn(C(F)F)n2)C[C@@H](C(=O)Nc2cnc(OC(F)F)c(C#N)c2)c2cnc3cc(F)nn3c21` (single isomer, unassigned) [Example 111] gave an IC50 of at least 1 µM.

Take `C[C@@]1(c2ccn(C(F)F)n2)C[C@H](C(=O)Nc2cnc(OC(F)F)c(C#N)c2)c2cnc3cc(F)nn3c21` (single isomer, unassigned) [Example 112]: the IC50 is 0.1 to 1 µM.

`C[C@]1(c2ccn(C(F)F)n2)C[C@@H](C(=O)Nc2cnc(OC(F)F)c(C#N)c2)c2cnc3cc(F)nn3c21` (single isomer, unassigned) [Example 113] showed an IC50 of 0.1 to 1 µM. For the compound `CC1(c2ccn(C(F)F)n2)CC(C(=O)Nc2cnc(-c3ncc(F)cn3)c(Cl)c2)c2cnc3cc(F)nn3c21` (single isomer, unassigned) [Example 114], the IC50 was in the range of 0.01 to 0.1 µM. Compound `CC1(c2ccn(C(F)F)n2)CC(C(=O)Nc2cnc(-c3ncc(F)cn3)c(Cl)c2)c2cnc3cc(F)nn3c21` (single isomer, unassigned) [Example 115] registered an IC50 of 0.1 to 1 µM. Compound `CC1(c2ccn(C(F)F)n2)CC(C(=O)Nc2cnc(-c3ncc(F)cn3)c(C(F)(F)F)c2)c2cnc3cc(F)nn3c21` (single isomer, unassigned) [Example 117] displayed an IC50 of 0.1 to 1 µM. Then `C[C@]1(c2cnn(C(F)F)c2)C[C@H](C(=O)Nc2cnc(-c3ncncc3F)c(C(F)(F)F)c2)c2cnc3cc(F)nn3c21` (single isomer, unassigned) [Example 118], with 0.01 to 0.1 µM; and `C[C@@]1(c2cnn(C(F)F)c2)C[C@@H](C(=O)Nc2cnc(-c3ncncc3F)c(C(F)(F)F)c2)c2cnc3cc(F)nn3c21` (single isomer, unassigned) [Example 119], with at least 1 µM; and `CC(F)(F)n1cc([C@]2(C)C[C@@H](C(=O)Nc3cnc(-n4nccn4)c(Cl)c3)c3cnc4cc(F)nn4c32)cn1` (single isomer, unassigned) [Example 121], with at least 1 µM. In the case of `CC(F)(F)n1cc([C@]2(C)C[C@H](C(=O)Nc3cnc(-n4nccn4)c(Cl)c3)c3cnc4cc(F)nn4c32)cn1` (single isomer, unassigned) [Example 122], the 50% inhibitory concentration (IC50) lay within 0.1 to 1 µM. As for `CC(F)(F)n1cc([C@@]2(C)C[C@@H](C(=O)Nc3cnc(-n4nccn4)c(Cl)c3)c3cnc4cc(F)nn4c32)cn1` (single isomer, unassigned) [Example 123], the IC50 lay within 0.1 to 1 µM.

In turn, `C[C@@]1(c2ccn(C(F)F)n2)C[C@@H](C(=O)Nc2cnc(-n3nccn3)c(C(F)(F)F)c2)c2cnc3cc(F)nn3c21` (single isomer, unassigned) [Example 125] showed an IC50 of at least 1 µM. `C[C@@]1(c2ccn(C(F)F)n2)C[C@H](C(=O)Nc2cnc(-n3nccn3)c(C(F)(F)F)c2)c2cnc3cc(F)nn3c21` (single isomer, unassigned) [Example 126] returned an IC50 of 0.01 to 0.1 µM. Regarding `C[C@]1(c2ccn(C(F)F)n2)C[C@@H](C(=O)Nc2cnc(-n3nccn3)c(C(F)(F)F)c2)c2cnc3cc(F)nn3c21` (single isomer, unassigned) [Example 127], the IC50 lay in the range of 0.01 to 0.1 µM. `CC1(c2cnn(C(F)F)c2)CC(C(=O)Nc2cnc(-c3ncc(F)cn3)c(C(F)(F)F)c2)c2cnc3cc(F)nn3c21` (single isomer, unassigned) [Example 133] gave a half-inhibitory concentration (IC50) of 0.1 to 1 µM. For `CC1(c2cnn(C(F)F)c2)CC(C(=O)Nc2cnc(-c3ncc(F)cn3)c(Cl)c2)c2cnc3cc(F)nn3c21` (single isomer, unassigned) [Example 135], the IC50 lay in the range of 0.1 to 1 µM. `C[C@@]1(c2ccn(C(F)F)n2)C[C@@H](C(=O)Nc2cnc(-c3ncccn3)c(C(F)(F)F)c2)c2cnc3cc(F)nn3c21` (single isomer, unassigned) [Example 137]: the IC50 is at least 1 µM. For the compound `C[C@@]1(c2ccn(C(F)F)n2)C[C@H](C(=O)Nc2cnc(-c3ncccn3)c(C(F)(F)F)c2)c2cnc3cc(F)nn3c21` (single isomer, unassigned) [Example 138], the IC50 fell in the range of 0.1 to 1 µM. Regarding `C[C@]1(c2ccn(C(F)F)n2)C[C@@H](C(=O)Nc2cnc(-c3ncccn3)c(C(F)(F)F)c2)c2cnc3cc(F)nn3c21` (single isomer, unassigned) [Example 139], the IC50 is 0.1 to 1 µM. Then `C[C@@]1(c2ccn(C(F)F)n2)C[C@@H](C(=O)Nc2cnc(-c3ncccn3)c(Cl)c2)c2cnc3cc(F)nn3c21` (single isomer, unassigned) [Example 141], with at least 1 µM. On to `C[C@@]1(c2ccn(C(F)F)n2)C[C@H](C(=O)Nc2cnc(-c3ncccn3)c(Cl)c2)c2cnc3cc(F)nn3c21` (single isomer, unassigned) [Example 142], for which the IC50 was at least 1 µM. Then `C[C@]1(c2ccn(C(F)F)n2)C[C@@H](C(=O)Nc2cnc(-c3ncccn3)c(Cl)c2)c2cnc3cc(F)nn3c21` (single isomer, unassigned) [Example 143], with at least 1 µM; and `Cn1ccc([C@]2(C)C[C@@H](C(=O)Nc3cnc(-n4nccn4)c(C(F)(F)F)c3)c3cnc4cc(F)nn4c32)n1` (single isomer, unassigned) [Example 145], with at least 1 µM. Compound `Cn1ccc([C@]2(C)C[C@H](C(=O)Nc3cnc(-n4nccn4)c(C(F)(F)F)c3)c3cnc4cc(F)nn4c32)n1` (single isomer, unassigned) [Example 146] showed a half-maximal inhibitory concentration (IC50) of 0.1 to 1 µM.

The IC50 is the concentration at which inhibition is half-maximal. A high value points to a need for much substance.
